Measured values reported in publication PMC10257182, “Discovery of senolytics using machine learning” (Nature Communications, 2023).
Where two headings read alike, the source gives them in different places.

Columns and labels:
Type in all cases: cell-based, human
[1] = system: senescent IMR90 ER:RAS cells (4-OHT-induced); test: Nuclei count (Hoechst, high content imaging) senolytic assay, oncogene-induced senescence (OIS) model, senescent cells; conditions: Homo sapiens; for viability at 0.4677 µM: log (dose) [M] -6.33, 72 h; for viability at 0.04677 µM: log (dose) [M] -7.33, 72 h; for viability at 0.02188 µM: log (dose) [M] -7.66, 72 h; for viability at 0.01 µM: log (dose) [M] -8, 72 h
How it was run: (§1)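 We compared total nuclei counts between senescent and non-senescent IMR90 ER:RAS cells after 72 h compound exposure (10 nM–10 μM). Hoechst staining followed fixation and permeabilisation; ouabain served as senolytic positive control.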

[2] = system: non-senescent control IMR90 ER:RAS cells; test: Nuclei count (Hoechst, high content imaging) senolytic assay, OIS model, non-senescent control cells; conditions: Homo sapiens; for viability at 4.677 µM: log (dose) [M] -5.33, 72 h; for viability at 2.188 µM: log (dose) [M] -5.66, 72 h; for viability at 0.2188 µM: log (dose) [M] -6.66, 72 h; for viability at 0.02188 µM: log (dose) [M] -7.66, 72 h; for viability at 4.68 µM: log (dose) [M] -5.33; for viability at 2.19 µM: log (dose) [M] -5.66; for viability at 0.219 µM: log (dose) [M] -6.66
How it was run: as §1

[3] = system: non-senescent control A549 cells; test: Nuclei count senolytic assay, TIS model, non-senescent control cells; conditions: Homo sapiens, A549, Control cells, mean, read-out: Mean % Cell Survival; for viability at 10 µM: log (dose) [M] -5; for viability at 4.68 µM: log (dose) [M] -5.33; for viability at 2.19 µM: log (dose) [M] -5.66; for viability at 1 µM: log (dose) [M] -6; for viability at 0.468 µM: log (dose) [M] -6.33; for viability at 0.219 µM: log (dose) [M] -6.66; for viability at 0.1 µM: log (dose) [M] -7; for viability at 0.0468 µM: log (dose) [M] -7.33; for viability at 0.0219 µM: log (dose) [M] -7.66; for viability at 0.01 µM: log (dose) [M] -8
How it was run: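 Nuclei counting by high-content imaging after 72 h compound treatment of senescent (etoposide-induced) versus control A549 cells. Top dose 10 μM final, lowest 10 nM.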

[4] = IMR-90, 72 h, Senescent, log (dose) [M] -5, 72 h, mean n=3 (Fig 3C), read-out: Mean % Cell Survival
[5] = IMR-90, 72 h, Senescent, log (dose) [M] -5.33, 72 h, mean n=3 (Fig 3C), read-out: Mean % Cell Survival
[6] = IMR-90, 72 h, Senescent, log (dose) [M] -5.66, 72 h, mean n=3 (Fig 3C), read-out: Mean % Cell Survival
[7] = IMR-90, 72 h, Senescent, log (dose) [M] -6, 72 h, mean n=3 (Fig 3C), read-out: Mean % Cell Survival
[8] = IMR-90, 72 h, Senescent, mean n=3 (Fig 3C), read-out: Mean % Cell Survival
[9] = IMR-90, 72 h, Senescent, log (dose) [M] -6.66, 72 h, mean n=3 (Fig 3C), read-out: Mean % Cell Survival
[10] = IMR-90, 72 h, Senescent, log (dose) [M] -7, 72 h, mean n=3 (Fig 3C), read-out: Mean % Cell Survival
[11] = IMR-90, 72 h, Control, log (dose) [M] -5, 72 h, mean n=3 (Fig 3C), read-out: Mean % Cell Survival
[12] = IMR-90, 72 h, Control, mean n=3 (Fig 3C), read-out: Mean % Cell Survival
[13] = IMR-90, 72 h, Control, log (dose) [M] -6, 72 h, mean n=3 (Fig 3C), read-out: Mean % Cell Survival
[14] = IMR-90, 72 h, Control, log (dose) [M] -6.33, 72 h, mean n=3 (Fig 3C), read-out: Mean % Cell Survival
[15] = IMR-90, 72 h, Control, log (dose) [M] -7, 72 h, mean n=3 (Fig 3C), read-out: Mean % Cell Survival
[16] = IMR-90, 72 h, Control, log (dose) [M] -7.33, 72 h, mean n=3 (Fig 3C), read-out: Mean % Cell Survival
[17] = IMR-90, 72 h, Control, log (dose) [M] -8, 72 h, mean n=3 (Fig 3C), read-out: Mean % Cell Survival
[18] = IMR-90, Control, read-out: % Cell Survival
[19] = IMR-90, Control, log (dose) [M] -6, read-out: % Cell Survival
[20] = IMR-90, Control, log (dose) [M] -6.33, read-out: % Cell Survival
[21] = IMR-90, Control, log (dose) [M] -7, read-out: % Cell Survival
[22] = IMR-90, Control, log (dose) [M] -8, read-out: % Cell Survival

## O=c1oc2c(O)c(O)cc3c(=O)oc4c(O)c(O)cc1c4c23 [Ellagic acid, ellagic acid]
[1]; [4]
  viability at 10 µM: 109%
[1]; [5]
  viability at 4.677 µM: 104%
[1]; [6]
  viability at 2.188 µM: 113%
[1]; [7]
  viability at 1 µM: 110%
[1]; [8]
  viability at 0.4677 µM: 123%
  viability at 0.04677 µM: 122%
  viability at 0.02188 µM: 114%
  viability at 0.01 µM: 113%
[1]; [9]
  viability at 0.2188 µM: 122%
[1]; [10]
  viability at 0.1 µM: 117%
[1]; IMR-90, Senescent cells, log (dose) [M] -5.66, individual replicates, SUP FIG 4C, read-out: % Cell Survival
  viability at 2.188 µM: 108%
[1]; IMR-90, Senescent cells, log (dose) [M] -6, individual replicates, SUP FIG 4C, read-out: % Cell Survival
  viability at 1 µM: 117%
[2]; [11]
  viability at 10 µM: 108%
[2]; [12]
  viability at 4.677 µM: 92.9%
  viability at 2.188 µM: 111%
  viability at 0.2188 µM: 111%
  viability at 0.02188 µM: 112%
[2]; [13]
  viability at 1 µM: 105%
[2]; [14]
  viability at 0.4677 µM: 109%
[2]; [15]
  viability at 0.1 µM: 102%
[2]; [16]
  viability at 0.04677 µM: 107%
[2]; [17]
  viability at 0.01 µM: 104%
[2]; IMR-90, Control cells, log (dose) [M] -6.33, individual replicates, SUP FIG 4C, read-out: % Cell Survival
  viability at 0.4677 µM: 118%
[2]; IMR-90, Control cells, log (dose) [M] -7, individual replicates, SUP FIG 4C, read-out: % Cell Survival
  viability at 0.1 µM: 103%
[2]; IMR-90, Control, log (dose) [M] -5, read-out: % Cell Survival
  viability at 10 µM: 133%
[2]; [18]
  viability at 4.68 µM: 122%
  viability at 2.19 µM: 120%
  viability at 0.219 µM: 122%
[2]; [19]
  viability at 1 µM: 123%
[2]; [20]
  viability at 0.468 µM: 120%
[2]; [21]
  viability at 0.1 µM: 130%
[2]; [22]
  viability at 0.01 µM: 115%
[3]
  viability at 10 µM: 90.6%
  viability at 4.68 µM: 76.6%
  viability at 2.19 µM: 114%
  viability at 1 µM: 78.9%
  viability at 0.468 µM: 39.9%
  viability at 0.219 µM: 77.2%
  viability at 0.1 µM: 65.1%
  viability at 0.0468 µM: 99%
  viability at 0.0219 µM: 94.5%
  viability at 0.01 µM: 109%

## CO[C@H]1C[C@@H]2CC[C@@H](C)[C@@](O)(O2)C(=O)C(=O)N2CCCC[C@H]2C(=O)O[C@H]([C@H](C)C[C@@H]2CC[C@@H](OCCO)[C@H](OC)C2)CC(=O)[C@H](C)/C=C(\C)[C@@H](O)[C@@H](OC)C(=O)[C@H](C)C[C@H](C)/C=C/C=C/C=C/1C [Everolimus, everolimus, reference compound]
[1]; [4]
  viability at 10 µM: 82.2%
[1]; [5]
  viability at 4.677 µM: 80%
[1]; [6]
  viability at 2.188 µM: 87.3%
[1]; [7]
  viability at 1 µM: 92.8%
[1]; [8]
  viability at 0.4677 µM: 92.3%
  viability at 0.04677 µM: 88.2%
  viability at 0.02188 µM: 90.5%
  viability at 0.01 µM: 93.7%
[1]; [9]
  viability at 0.2188 µM: 92.6%
[1]; [10]
  viability at 0.1 µM: 93.7%
[1]; IMR-90, Senescent, log (dose) [M] -5, read-out: % Cell Survival
  viability at 10 µM: 67.8%
[1]; IMR-90, Senescent, log (dose) [M] -5.33, read-out: % Cell Survival
  viability at 4.677 µM: 92.4%
[1]; IMR-90, Senescent, log (dose) [M] -5.66, read-out: % Cell Survival
  viability at 2.188 µM: 80%
[1]; IMR-90, Senescent, log (dose) [M] -6.66, read-out: % Cell Survival
  viability at 0.2188 µM: 80.7%
[1]; IMR-90, Senescent, log (dose) [M] -7, read-out: % Cell Survival
  viability at 0.1 µM: 80.3%
[2]; [11]
  viability at 10 µM: 107%
[2]; [12]
  viability at 4.677 µM: 109%
  viability at 2.188 µM: 107%
  viability at 0.2188 µM: 100%
  viability at 0.02188 µM: 102%
[2]; [13]
  viability at 1 µM: 104%
[2]; [14]
  viability at 0.4677 µM: 105%
[2]; [15]
  viability at 0.1 µM: 109%
[2]; [16]
  viability at 0.04677 µM: 105%
[2]; [17]
  viability at 0.01 µM: 104%
[2]; [18]
  viability at 4.68 µM: 107%
  viability at 2.19 µM: 108%
  viability at 0.219 µM: 109%
[2]; [19]
  viability at 1 µM: 106%
[2]; [20]
  viability at 0.468 µM: 92.7%
[2]; [21]
  viability at 0.1 µM: 105%
[2]; IMR-90, Control, log (dose) [M] -7.33, read-out: % Cell Survival
  viability at 0.04677 µM: 116%
[2]; IMR-90, Control, log (dose) [M] -7.66, read-out: % Cell Survival
  viability at 0.0219 µM: 115%
[2]; [22]
  viability at 0.01 µM: 118%
[3]
  viability at 10 µM: 106%
  viability at 4.68 µM: 103%
  viability at 2.19 µM: 103%
  viability at 1 µM: 102%
  viability at 0.468 µM: 67.5%
  viability at 0.219 µM: 103%
  viability at 0.1 µM: 102%
  viability at 0.0468 µM: 106%
  viability at 0.0219 µM: 105%
  viability at 0.01 µM: 108%
